Marks after values point to notes of the source that are not given here.
Legend:
[1] = tested on: radiolabeled mAb-conjugates; experiment: In vitro Label release from radiolabeled mAb-TCO-chelate conjugates incubated with Cleaving Agents (SEC); conditions: 37°C, 15-24 h
Protocol: Briefly, mAb solutions in PBS (4 mg/mL final concentration) were added with 15-20 eq of the NHS-derivative (dissolved at 10 mg/mL in DMSO) and the pH was adjusted to 9 with 1M sodium carbonate. The reaction mixtures were incubated at rt in the dark for 2 h then the products were purified by dialysis (20 kDa MW cut-off membranes) in chelex-treated 0.25M NH4OAc pH 5.5.
After 15-24 h incubation the mixtures were analyzed by SEC and the amount of released Label was quantified from the radioactivity elution profile.

[2] = Radioactivity in blood and tumors stated jointly for LS174T and BT-474 tumor-bearing mice (^111In-trastuzumab-1.8, 2.10); type: in vivo; conditions: ^111In-trastuzumab-1.8 followed by 2.10 48 h post-injection
Protocol: Female Balb/C mice were injected ca 1 million LS174T colon carcinoma cells or 10 million BT-474 breast cancer cells s.c. in the flank. […] Control groups were euthanized 72 h post-mAb injection.

[3] = ^111In biodistribution in normal mice after ^111In-trastuzumab-1.8 followed by 2.10 or vehicle; type: in vivo
[4] = parameters: species or system mice; conditions: female, Balb/C nude, mouse, in vivo
Protocol: Blood samples were withdrawn 5 min before and at various times after Cleaving Agent administration and the radioactivity was measured in a gamma-counter.

[5] = Label release from TCO derivative 1.8 on trastuzumab, ^111In, 50% mouse plasma in PBS
[6] = ^111In-trastuzumab-1.8 followed by 2.10 1 h post-mAb, euthanized 24 h later, SD, n = 4
[7] = ^111In-trastuzumab-1.8 followed by 2.10 24 h post-mAb, euthanized 24 h later, SD, n = 4

Question: Which “release (%)” value ([1]; Label release from TCO derivative 1.14 on CC49, ^89Zr, PBS) does the source give for `O=C(CCCC(=O)Nc1cnccc1-c1nnc(-c2ccncc2NC(=O)CCCC(=O)NCCOCCOCCOCCOCCOCCOCCOCCOCCOCCO)nn1)NCCOCCOCCOCCOCCOCCOCCOCCOCCOCCO` [Compound 2.10, N^1,N^1′-(4,4′-(1,2,4,5-Tetrazine-3,6-diyl)bis(pyridine-4,3-diyl))bis(N^5-(29-hydroxy-3,6,9,12,15,18,21,24,27-nonaoxanonacosyl)glutaramide)] here?
Answer: Its value is 45.2%.

Question: What about the “release (%)” value ([1]; Label release from TCO derivative 1.15 on CC49, ^89Zr, PBS) of the same molecule?
Answer: Its value is 50.0%.

Question: What about the “release (%)” value ([1]; Label release from TCO derivative 1.17 on CC49, ^89Zr, PBS) of the same molecule?
Answer: Its value is 50.0%.

Question: What about the “release (%)” value ([1]; Label release from TCO derivative 1.2 on trastuzumab, ^111In, 50% mouse plasma in PBS) of the same molecule?
Answer: The value was 52.2%.

Question: What about the “release (%)” value ([1]; Label release from TCO derivative 1.2 on trastuzumab, ^111In, PBS) of the same molecule?
Answer: The value was 53.4%.

Question: What about the “release (%)” value ([1]; Label release from TCO derivative 1.4 on trastuzumab, ^111In, PBS) of the same molecule?
Answer: Its value is 57.9%.

Question: And the “release (%)” value ([1]; Label release from TCO derivative 1.8 on CC49, ^111In, PBS)?
Answer: Its value is 79.9%.

Question: What about the “release (%)” value ([1]; Label release from TCO derivative 1.8 on cetuximab, ^111In, PBS) of the same molecule?
Answer: Its value is 84.9%.

Question: What about the “release (%)” value ([1]; Label release from TCO derivative 1.8 on girentuximab, ^111In, PBS) of the same molecule?
Answer: Its value is 83.6%.

Question: And the “release (%)” value ([1]; Label release from TCO derivative 1.8 on rituximab, ^111In, PBS)?
Answer: The value was 82.5%.

Question: And the “release (%)” value [1, 5]?
Answer: Its value is 82.4, 82.4^a %.

Question: What about the “release (%)” value ([1]; Label release from TCO derivative 1.8 on trastuzumab, ^111In, PBS) of the same molecule?
Answer: Its value is 82.4, 82.4^a %.

Question: What about the “release (%)” value ([1]; Label release from TCO derivative 1.8 on trastuzumab, ^177Lu, PBS) of the same molecule?
Answer: Its value is 81.2%.

Question: And the “radioactivity uptake in tumors versus control mice” value ([2]; euthanized 24 h later)?
Answer: The value was “somewhat lower”.

Question: What about the radioactivity in blood ([2]; euthanized 24 h later (LS174T or BT-474)) of the same molecule?
Answer: The radioactivity in blood was 2-3 % ID/g.

Question: And the “reduction in blood radioactivity with respect to control mice” value ([3]; ^111In-trastuzumab-1.8 (ca. 0.5 mg/kg) followed by 2.10 (ca. 33.5 μmol/kg) either 1 h or 24 h post-mAb, 24 h after Cleaving Agent)?
Answer: The value was “ca. 70%”.

Question: What about the “^111In biodistribution, Blood” value [3, 6] of the same molecule?
Answer: The value was 3.61 ± 0.44 % injected dose per gram.

Question: What about the “^111In biodistribution, Bone” value [3, 6] of the same molecule?
Answer: The value was 0.44 ± 0.03 % injected dose per gram.

Question: And the “^111In biodistribution, Brain” value [3, 6]?
Answer: Its value is 0.13 ± 0.08 % injected dose per gram.

Question: And the “^111In biodistribution, Heart” value [3, 6]?
Answer: Its value is 0.87 ± 0.10 % injected dose per gram.

Question: And the “^111In biodistribution, Kidney L” value [3, 6]?
Answer: The value was 5.39 ± 0.84 % injected dose per gram.

Question: What about the “^111In biodistribution, Lg. intestine” value [3, 6] of the same molecule?
Answer: Its value is 0.34 ± 0.07 % injected dose per organ.

Question: And the “^111In biodistribution, Liver” value [3, 6]?
Answer: The value was 3.35 ± 0.10 % injected dose per gram.

Question: What about the “^111In biodistribution, Lung” value [3, 6] of the same molecule?
Answer: Its value is 1.94 ± 0.43 % injected dose per gram.

Question: And the “^111In biodistribution, Muscle” value [3, 6]?
Answer: The value was 0.27 ± 0.02 % injected dose per gram.

Question: And the “^111In biodistribution, Sm. Intestine” value [3, 6]?
Answer: The value was 0.61 ± 0.04 % injected dose per organ.

Question: What about the “^111In biodistribution, Spleen” value [3, 6] of the same molecule?
Answer: Its value is 1.19 ± 0.16 % injected dose per gram.

Question: What about the “^111In biodistribution, Blood” value [3, 7] of the same molecule?
Answer: Its value is 2.91 ± 0.53 % injected dose per gram.

Question: What about the “^111In biodistribution, Bone” value [3, 7] of the same molecule?
Answer: Its value is 0.65 ± 0.03 % injected dose per gram.

Question: And the “^111In biodistribution, Brain” value [3, 7]?
Answer: Its value is 0.11 ± 0.02 % injected dose per gram.

Question: And the “^111In biodistribution, Heart” value [3, 7]?
Answer: Its value is 0.93 ± 0.09 % injected dose per gram.

Question: And the “^111In biodistribution, Kidney L” value [3, 7]?
Answer: Its value is 4.75 ± 0.45 % injected dose per gram.

Question: What about the “^111In biodistribution, Lg. intestine” value [3, 7] of the same molecule?
Answer: The value was 0.56 ± 0.14 % injected dose per organ.

Question: And the “^111In biodistribution, Liver” value [3, 7]?
Answer: Its value is 4.68 ± 1.11 % injected dose per gram.

Question: And the “^111In biodistribution, Muscle” value [3, 7]?
Answer: Its value is 0.29 ± 0.05 % injected dose per gram.

Question: What about the “^111In biodistribution, Sm. Intestine” value [3, 7] of the same molecule?
Answer: The value was 1.04 ± 0.21 % injected dose per organ.

Question: And the “^111In biodistribution, Spleen” value [3, 7]?
Answer: Its value is 1.89 ± 0.17 % injected dose per gram.

Question: Which results are given for `O=C(O)CCCC(=O)Nc1cccnc1-c1nnc(-c2ncccc2NC(=O)CCCC(=O)O)nn1` [Compound 2.7, 5,5′-((2,2′-(1,2,4,5-Tetrazine-3,6-diyl)bis(pyridine-3,2-diyl))bis(azanediyl))bis(5-oxopentanoic acid)]?
Answer: release (%) [1, 5]: 55.3^a %; decrease of radioactivity circulating in blood [4]: ca. 30%

Source: US20220331458A1, “AGENTS FOR CLEAVING LABELS FROM BIOMOLECULES IN VIVO” (TAGWORKS PHARMACEUTICALS B.V., priority 2019, published 2022)
